Measurements reported in US20060135612A1, “Method of ameliorating or abrogating the effects of a neurodegenerative disorder, such as amyotrophic lateral sclerosis (ALS), by using a HDAC inhibiting agent” (U.S. Department of Veterans Affairs, priority 2004, published 2006).
Read-outs that look alike come from different tables or passages of the source.

Columns and labels:
[1] = tested on: bcl-2 promoter; experiment: bcl-2 promoter activity assay in transfected N2a cells; format: cell-based
Protocol: Promoter Activity Assay: […] Vincent Bours (University of Liege, Belgium) (Reference 41). The bcl-2 Luc-reporter plasmids containing the fragment from -3934 to -8 from the bcl-2 promoter was also generous gift from Dr. L. Boxer (Stanford University, California). […] All promoter assays were performed in duplicates. Enzyme activities were normalized to the protein concentration of the extracts.

[2] = tested on: mice
Protocol: (§6) Intraperitoneal Dosing: Based upon previous studies (Reference 29), a dose response study was performed, treating groups (n=20) of wild type and G93A mice with 200, 600, 1,200, 2,000 and 5,000 mg/kg by daily intraperitoneal injection (100 μl) of sodium butyrate (Acros Organics/Fisher Scientific, Fairlawn, N.J.) dissolved in PBS and made fresh daily. Additional groups of mice were treated in the same manner with 100, 200, 400, 600, and 800 mg/kg of phenylbutyrate (Triple Crown America, Inc. Perkasie, Pa.). Control groups of G93A mice were treated with PBS injection (vehicle). Approximately 260 mice were used for behavioral and survival analyses.
(§7) Motor performance and ability to feed was closely monitored and used as the basis for determining when to euthanize the mice. The criterion for euthanization was the point in time the ALS mice were unable to right themselves after being placed on their back for 30 seconds. Some deaths occurred overnight and were recorded the following morning.

[3] = tested on: G93A transgenic ALS mice; details: for Survival (Days ± SD) / Percentile change (survival extension): G93A mice; for Percentile change (survival extension): vs 0 mg/kg/d
Protocol: We have standardized criteria to ensure homogeneity of the cohorts within the testing groups. Mice were randomized from 24 litters all within 4 days from the same ‘f’ generation. Body weights were taken at 20 days and mice were equally distributed according to weight within each experimental cohort. Mice under 8 g at 20 days were excluded from the experiments.
as §6, §7

[4] = tested on: G93A mice; experiment: Motor performance on rotarod; format: in vivo; details: most efficacious doses, after 13 wks through endstage disease
[5] = tested on: G93A mice; details: 120 days; for reactive astrogliosis (GFAP immunostaining): G93A mice spinal cord sections; for gross spinal cord atrophy: G93A mice
[6] = Body weight; format: in vivo; details: G93A mice, beginning after 100 days
[7] = tested on: G93A mice; details: at 120 days, PBS-treated 4,680.6±847.4, WT 11,580.9±221.2
[8] = tested on: ALS mice; details: References 10 and 11; cited from earlier work
[9] = tested on: humans with ALS; details: cited from earlier work
[10] = tested on: bcl-2; details: spinal cord tissue cultures, 1 mM, time-dependent
Protocol: (§1) Freshly isolated spinal cords from wild type and G93A mice were minced and incubated with neurobasal medium for 12 hr. […] After incubation, the tissues were harvested and equally divided for Western blot analysis and RT-PCR.
(§2) Western Blotting: Tissue lysates and subcellular fractions were prepared using an ice-cold cell extraction buffer containing 50 mM Tris-HCl, pH 7.4, 150 mM NaCl, 2 mM EDTA, 1% Triton X-100, 1 mM phenylmethylsulfonyl fluoride (PMSF), 10 mg/ml leupeptin, 1 μM pepstatin, 1 mM N-ethylmleimide (NEM), 2 mM Na3VO4, 20 mM sodium pyrophosphate, and 50 mM NaF). Lysates were centrifuged at 15,000 rpm at 4° C. for 30 min. Then the protein concentration was quantified and samples were boiled for 10 min with Laemmli buffer (15 is 100 mM Tris-HCL, pH 6.8, 4% SDS, 200 mM dithiothreitol, 20% glycerol, 2% SDS, 0.2% bromophenol blue, 10 μg/ml aprotinin, 10 μg/ml leupeptin) at 100° C. In general, 30 μg of proteins were electrophoresed on 10% SDS-polyacrylamide gel and transferred to nitrocellulose membrane. Membranes were blocked in 5% skim milk in TBST (Tris, pH 7.4; 150 mM NaCl; 0.05% Tween 20) for 30 min at room temperature. Blots were probed with primary antibodies overnight at 4 ° C. […] HRP-conjugated secondary IgG anti-Rabbit IgG and anti-mouse IgG (Bio-Rad Laboratories, Inc., Hercules, Calif.) were used at 1:5000 and 1:3000, respectively. […]

[11] = tested on: plκB; details: spinal cord tissue cultures, 1 mM, time-dependent
Protocol: as §1, §2

[12] = tested on: bcl-2 mRNA; details: spinal cord tissue cultures, ex vivo administration
Protocol: as §1

[13] = tested on: N2a mutant SOD (G41D) cells; details: 1 mM, 12 hr pretreatment, X/XO 6 hr, MTT, vs untreated cells
Protocol: (§3) N2a Cell Culture: N2a monolayer cell cultures were grown in 50% DMEM and 50% OPTI-MEM with 5% fetal bovine serum (FBS), 1% antibiotic antimycotic, and 400 microgram/ml of the neomycin analog G418. Differentiation was induced within 3 days in serum-free medium. The SOD1 mutation (G41D) was introduced into a plasmid clone of human genomic SOD1 (pHGSOD-SVneo). Stably transfected lines of N2a cells were selected with the drug G418, after transfection with SOD1 pHGSOD-SVneo plasmids. Differentiated cells were incubated without FBS for 6 days before treatments. […] Cell viability was measured by MTT assay.

[14] = tested on: WT and WT-SOD1 N2a cells; details: MTT
Protocol: as §3

[15] = tested on: acetylated NF-κB p50; details: 1 mM
Protocol: as §1
Detection of Acetylated NF-κB p50: For detection of the levels of acetylated NF-κB p50, 200 μg of nuclear extracts were diluted to a total volume of 500 microliter in lysis buffer (100 mM Tris buffer, pH7.4, containing 1% Triton X-100, 150 mM NaCl, 1 mM sodium orthovanadate, 5 mM sodium fluoride, 3 mM PMSF, 3 mM DTT, 0.5 mg/m leupeptin, and 10 mg/ml aprotinin) and incubated with 7 μl of goat anti-p50 antibody (Santa Cruz, Santa Cruz, Calif.) by shaking overnight at 4° C. Thirty-two μl of protein A-sepharose (50% v/v slurry) was added to lysates and left for 1 hr at 4° C. Beads were collected by centrifugation and washed twice with lysis buffer, once in PBS and finally resuspended with 40 μl of 2×SDS loading buffer. Samples were boiled and a 20 μl aliquot was separated in a 10% SDS-PAGE. After transferring the proteins to a nitrocellulose membrane acetylated p50 proteins were detected in Western blot analysis using an acetyl lysine-specific antibody (AbCam, Cambridge, Mass. at 1:1000).

[16] = tested on: activated caspase 9; details: G93A mice, 120 days, vs untreated
Protocol: (§4) Western Blotting: Tissue lysates and subcellular fractions were prepared using an ice-cold cell extraction buffer containing 50 mM Tris-HCl, pH 7.4, 150 mM NaCl, 2 mM EDTA, 1% Triton X-100, 1 mM phenylmethylsulfonyl fluoride (PMSF), 10 mg/ml leupeptin, 1 μM pepstatin, 1 mM N-ethylmleimide (NEM), 2 mM Na3VO4, 20 mM sodium pyrophosphate, and 50 mM NaF). Lysates were centrifuged at 15,000 rpm at 4° C. for 30 min. Then the protein concentration was quantified and samples were boiled for 10 min with Laemmli buffer (15 is 100 mM Tris-HCL, pH 6.8, 4% SDS, 200 mM dithiothreitol, 20% glycerol, 2% SDS, 0.2% bromophenol blue, 10 μg/ml aprotinin, 10 μg/ml leupeptin) at 100° C. In general, 30 μg of proteins were electrophoresed on 10% SDS-polyacrylamide gel and transferred to nitrocellulose membrane. Membranes were blocked in 5% skim milk in TBST (Tris, pH 7.4; 150 mM NaCl; 0.05% Tween 20) for 30 min at room temperature. Blots were probed with primary antibodies overnight at 4 ° C. […] HRP-conjugated secondary IgG anti-Rabbit IgG and anti-mouse IgG (Bio-Rad Laboratories, Inc., Hercules, Calif.) were used at 1:5000 and 1:3000, respectively. HL-60 Cell lysates were used as positive controls (Upstate Biotechnology, Lake Placid, N.Y.).

[17] = tested on: bcl-2; details: G93A mice, vs vehicle-treated
Protocol: as §4

[18] = tested on: NF-κB p50; details: G93A mice, vs WT and vehicle-treated
Protocol: as §4

[19] = tested on: cytochrome c; details: G93A spinal cord, 120 days, vs PBS-treated
Protocol: as §4

[20] = tested on: plκB; details: G93A mice
Protocol: as §4

[21] = tested on: activated caspase 3; details: G93A mice, 120 days, vs untreated
Protocol: as §4

[22] = tested on: G93A mice; details: at 17 weeks, vs untreated G93A mice
Protocol: Clinical Assessment: Both motor performance and body weight were measured throughout the study. Training sessions were given on days 21 and 22 to acclimate the mice to the rotarod apparatus (Columbus Instruments, Columbus, Ohio). Motor performance (constant rotation at 16 rpm) was assessed weekly from 23-100 days of age and twice weekly from 101 days of age. Three 60 sec trials were given during each session and averaged. Body weights were recorded twice weekly at the same time of day. Gait analysis was performed measuring stride length (Reference 49).

[23] = tested on: NF-κB p50; details: N2a cells, 1 mM for three hours
Protocol: (§5) Immunofluorescence Staining and Microscopy: Indirect labeling methods were used to determine plκB and NF-κB p50 in N2aCells. […] The cells were washed with warm PBS and fixed at room temperature for 15 min with 4% paraformaldehyde (PFA). After washing with PBS, fixed cells were incubated with blocking solution containing 0.3% Triton X-100, 5% bovine serum albumin, and 3% goat serum for 1 hr, followed by incubation with primary antibodies overnight at 4° C. After three washes with PBS, the cells were incubated for 1 hr with FITC-conjugated (1:200 dilution) and Cy3-conjugated secondary antibody (1:200 dilution; Vector Laboratories, Burlingame, Calif.). The slides were washed three times with PBS and mounted with fluorochrome mounting solution. Images were analyzed using a fluorescence microscope. Control experiments were performed in the absence of primary antibody.

[24] = tested on: plκB; details: N2a cells, 1 mM for three hours
Protocol: as §5

[25] = tested on: histone 3 and histone 4 acetylation; details: treated WT and G93A mice

## COc1cc(/C=C/C(=O)CC(=O)/C=C/c2ccc(O)c(OC)c2)ccc1O [Curcumin]
[1]; N2a cells, with PBA
  effect on PBA-induced bcl-2 promoter activity: dose-dependently blocked

## CCCC(=O)[O-].[Na+] [NAB, sodium butyrate]
[2]; 2 g/kg/d i.p.
  time to death (mice became moribund and died): 1 to 9 days
[2]; 4 g/kg/d i.p.
  time to sudden death: 0.5 to 1.0 h
[3]; 200 mg/kg/d i.p.
  Survival (Days ± SD): 129.2 ± 4.5 days
[3]; 600 mg/kg/d i.p.
  Survival (Days ± SD): 141.8 ± 5.9 days
  Percentile change (survival extension): 12.5%
[3]; 1200 mg/kg/d i.p.
  Survival (Days ± SD): 151.3 ± 6.8 days
  Percentile change (survival extension): 20%
[4]
  motor performance (rotarod): significantly improved
[5]
  reactive astrogliosis (GFAP immunostaining): reduced
[5]; 1.2 g/kg/d
  gross spinal cord atrophy: ameliorated
[6]
  body weight loss: significantly reduced
[7]; 1.2 g/kg/d i.p. from 21 days
  estimated number of ventral horn neurons, lumbar cord: 9,604.4±346.2

## [O-][n+]1cccc(/C(Cl)=N/OC[C@H](O)CN2CCCCC2)c1 [arimoclomal]
[8]
  survival extension: 22%

## Nc1nc2ccc(OC(F)(F)F)cc2s1 [riluzole]
[9]
  extension of life: 10-15%

## sodium phenylbutyrate [PBA]
[10]
  bcl-2 protein: increased
[11]
  plκB protein: increased
[2]; 600 mg/kg/d i.p.
  morbidity and mortality: morbidity and mortality
[2]; 800 mg/kg/d i.p.
  morbidity and mortality: morbidity and mortality
[3]; 200 mg/kg/d i.p.
  Survival (Days ± SD): 136.5 ± 5.5 days
  Percentile change (survival extension): 8.6%
[3]; 400 mg/kg/d i.p.
  Survival (Days ± SD): 153.2 ± 6.4 days
  Percentile change (survival extension): 21.9%
[3]; transgenic SOD1 mice, this study, dose not stated
  survival benefit: 22%
[4]
  motor performance (rotarod): significantly improved
[12]
  mRNA upregulation of bcl-2: induced at 3 hours and sustained until 12 hours
[13]
  improvement of cell viability: 34.7%
[14]
  protection against X/XO-induced cell death: protects
[1]; N2a cells transfected with bcl-2 reporter plasmids
  increase of bcl-2 promotor activity: 90%
[1]; N2a cells transfected with bcl-2 reporter plasmids, after 24 h of incubation
  induction of bcl-2 promotor activity: approximately 2 fold
[1]; N2a cells, transfection assay
  transactivation of wild type κB site bcl-2 promotor: transactivates
[5]
  reactive astrogliosis (GFAP immunostaining): reduced
[5]; 400 mg/kg/d
  gross spinal cord atrophy: ameliorated
[15]; spinal cord tissue cultures from G93A mice
  time of induced NF-κBp50 acetylation: 3 to 6 h
[15]; spinal cord tissue cultures from WT mice
  time of induced NF-κBp50 acetylation: 6 to 24 h
[6]
  body weight loss: significantly reduced
[16]
  activated caspase 9 (Western blot): significantly reduces
[17]
  Bcl-2 expression in spinal cord sections: restored to WT levels
[18]
  expression of NF-κBp50: Marked increased expression
[19]
  release of cytochrome c into the cytosol of neurons: dramatic reduction
[20]
  phosphorylation of lκB in the ventral horn: increased
[21]
  activated caspase 3 (Western blot): significantly reduces
[22]
  stride length: markedly improved
[23]
  nuclear translocation of NF-κB p50 immunofluorescence: increased
[24]
  cytosolic plκB immunofluorescence: increased
[25]
  histone 3 and histone 4 acetylation (Western blot): markedly increased
[7]; 400 mg/kg/d i.p. from 21 days
  estimated number of ventral horn neurons, lumbar cord: 10,378.4±304.4
